d = 2'-deoxy (DNA); r = 2'-OH (RNA)
Key:
[1] = tested on: Bna1 promoter; details: cited from earlier work
[2] = tested on: HCVpp; format: cell-based, hepatitis C virus; details: cells treated with Rev-erbα agonists (FIG. 3c, 3d)
[3] = tested on: HIV virus (NL4.3); assay: HIV (NL4.3) infection of TZM-bl cells, HIV promoter luciferase assay; details: for HIV infection (HIV promoter activity): increasing dose, 24 h (FIGS. 11a, 11b)
[4] = tested on: chronic HBV infected cell lines 2215 and AD38; assay: HBV RNA levels in chronic HBV infected cell lines; format: cell-based, hepatitis B virus; details: 2215 and AD38 cells, 48 hours (FIG. 5c)
Procedure: (§1) Huh-7 cells were treated with either REV-ERBα agonist GSK4112 or SR9009 for 16 hour at a range of doses. Medium containing the drug was then removed following viral inoculation and infectivity assessed 24 hours later.
(§2) The ability of REV-ERBα activators to reduce viral burden of chronic HCV infected cells was then tested. […] An identical assay was performed in two chronic HBV infected cell lines—2215 and AD38.

[5] = tested on: HCV genotype 3a S52 replicon; details: REV-ERB agonists 20 μM with increasing DAA, 48 h (FIGS. 10f, 10g)
[6] = tested on: HCV sub-genomic replicon; assay: HCV genome replication in a synthetic sub-genomic replicon line; details: dose-dependent (FIG. 4a)
[7] = tested on: Zika virus; details: Huh-7, infectivity after 24 h and 48 h (FIG. 12)
[8] = tested on: HCV sub-genomic replicons genotypes 1b, 2a, 3a; assay: HCV sub-genomic luciferase replicons genotypes 1-3 in Huh-7.5-SEC14L2 cells; details: genotypes 1-3 replicons, increasing concentrations, 24 h (FIGS. 10c-e)
[9] = tested on: Bmal1 mRNA; assay: Bmal1 mRNA levels by qPCR in hepatocytes / Huh-7 cells; details: qPCR (FIG. 3a)
[10] = tested on: HCV infected Huh-7 cells; assay: Viral RNA load in chronic HCV infected cells by qPCR; format: cell-based, hepatitis C virus; details: increasing dose, 24 hours, qPCR (FIG. 5a)
Procedure: To assess the ability of REV-ERB activators to limit HCV RNA replication, HCV infected Huh-7 cells (verified by NSSA staining) were treated with GSK4112 or SR9009 at a range of doses. […], HCV infection levels were quantified by reverse transcriptase polymerase chain measurement of viral RNA (see FIG. 4b).
as §1, with “later. To evaluate the efficacy of these drugs in viral replication, chronic infected HCV or HBV cells were treated with REV-ERBα activators at a range of concentrations and viral load determined by real-time qPCR 24 hours later.” for “later.”
as §2
HCVcc SA13/JFH-1 infected Huh-7 cells were also treated with increasing concentrations of GSK2667 for 24 h and viral RNA levels measured after 24 h.

[11] = tested on: pseudoparticles expressing viral glycoproteins (HCV, VSV, Lassa, Flu, MLC, Ebola); format: cell-based

Question: With `CS(=O)(=O)N(Cc1ccco1)CC(O)Cn1c2ccccc2c2ccccc21` (stereo not shown) [KL001] as the compound, how does the Bmal1 promoter activity [1] read?
Answer: The Bmal1 promoter activity was “inhibit Bna1 promoter activity”.

Question: Which results are given for “Rev-erbα siRNA: rev-erba siRNA duplex from Life technologies, SEQ ID NO 5 and 6, two-base DNA overhang (chain 1 GGUGUCUGAAGAAUGAGAATT; chain 2 UUCUCAUUCUUCAGACACCTT; sugars from the 5' end r19 d2, backbone and methylation of C not given here)”?
Answer: Effect on the anti-viral activity (HCV entry) of REV-ERBα agonists GSK4112/SR9009 [2]: rescued; HIV promoter activity after siRNA knockdown ([3]; 48 h post-siRNA, HIV 24 h (FIG. 11c)): increased HIV promoter activity

Question: With `CCOC(=O)N1CCC(CN(Cc2ccc(Cl)cc2)Cc2ccc([N+](=O)[O-])s2)C1` (stereo not shown) [SR9009] as the compound, how does the “HBV RNA levels” value [4] read?
Answer: The value was “significantly reduced HBV RNA levels”.

Question: And the “Combined effect of REV-ERB agonist and DAA on HCV genotype 3 replication” value [5]?
Answer: The value was “additive effects”.

Question: And the “Replication of the HCV genome” value [6]?
Answer: Its value is “inhibited”.

Question: What about the Zika infection [7] of the same compound?
Answer: The Zika infection was “inhibit Zika infection”.

Question: And the “Antiviral activity against HCV RNA replication across genotypes” value [8]?
Answer: Its value is “pan-genomic”.

Question: What about the “Bmal1 mRNA levels” value [9] of the same compound?
Answer: Its value is “decreased Bmal1 mRNA levels”.

Question: What about the “HIV infection (HIV promoter activity)” value [3] of the same compound?
Answer: The value was “inhibit HIV infection”.

Question: And the “Viral load (HCV genomic RNA)” value [10]?
Answer: Its value is “dose-dependent reduction in viral load”.

Question: Which “Replication of the HCV genome” value [6] does the source give for `CC(C)(C)OC(=O)CN(Cc1ccc(Cl)cc1)Cc1ccc([N+](=O)[O-])s1` [GSK4112] here?
Answer: Its value is “inhibited”.

Question: What about the “Entry of pseudoparticles of multiple viruses” value [11] of the same compound?
Answer: Its value is “inhibitory effect on entry was replicated across multiple viruses including lassa and ebola”.

Question: And the “Bmal1 mRNA levels” value [9]?
Answer: The value was “decreased Bmal1 mRNA levels”.

Question: What about the “HIV infection (HIV promoter activity)” value [3] of the same compound?
Answer: Its value is “inhibit HIV infection”.

Question: What about the “Viral load (HCV genomic RNA)” value [10] of the same compound?
Answer: The value was “dose-dependent reduction in viral load”.

Question: Which “Effect on the anti-viral activity (HCV entry) of REV-ERBα agonists GSK4112/SR9009” value [2] does the source give for `CCOC(=O)C1Cc2ccccc2CN1C(=O)c1ccc(SC)s1` (stereo not shown) [SR8278] here?
Answer: Its value is “rescued”.

Question: And the “HIV infection (HIV promoter activity)” value [3]?
Answer: The value was “promotes HIV infection”.

Question: Which “Combined effect of REV-ERB agonist and DAA on HCV genotype 3 replication” value [5] does the source give for `CC(C)OC(=O)[C@H](C)N[P@](=O)(OC[C@H]1O[C@@H](n2ccc(=O)[nH]c2=O)[C@](C)(F)[C@@H]1O)Oc1ccccc1` [Sofosbuvir] here?
Answer: Its value is “additive effects”.

From patent US20210102215A1, “TREATMENT AND PREVENTION OF VIRAL INFECTION” (priority 2016, published 2021)
